Data as given in patent publication US20260070945A1, “MACROCYCLIC IMMUNOMODULATORS” (Bristol-Myers Squibb Company, priority 2022, published 2026).
Where two headings read alike, the source gives them in different places. *1 amine or outer side, *2 acyl side, *3 side chain or, on linkers, in order; H or OH if unused. Where a SMILES comes first, the peptide text is derived from it. Bridges are numbered along the chain shown (N, C = ends). [ ]: non-standard residue; d: D form. The star is where a group is joined. Phe(3-CF3) = N[C@@H](Cc1cccc(C(F)(F)F)c1)C(=O)O; Phe(4-CF3) = N[C@@H](Cc1ccc(C(F)(F)F)cc1)C(=O)O; Phe(4-COOH) = N[C@@H](Cc1ccc(C(=O)O)cc1)C(=O)O; Bip = N[C@@H](Cc1ccc(-c2ccccc2)cc1)C(=O)O; Phe(3-Me) = Cc1cccc(C[C@H](N)C(=O)O)c1; γGlu = O=C(O)[C@H](CCC(=O)[*:2])N[*:1]; Abu(3S-NH2) = C[C@H](N)[C@H](N)C(=O)O; NH(CH2)12COOH = O=C(O)CCCCCCCCCCCCN*; Val(3-OH) = CC(C)(O)[C@H](N)C(=O)O; 3Thi = N[C@@H](Cc1ccsc1)C(=O)O; Cha = N[C@@H](CC1CCCCC1)C(=O)O; Cit = NC(=O)NCCC[C@H](N)C(=O)O; Carboxymethyl = O=C(O)C*; NMeA = CN[C@@H](C)C(=O)O; Aun = NCCCCCCCCCCC(=O)O; Dab = NCC[C@H](N)C(=O)O; Dap = NC[C@H](N)C(=O)O; AEEA = NCCOCCOCC(=O)O

Target: T1, PD-1/PD-L1 interaction (PE-labeled human PD-L1-Ig binding to Jurkat cell line over-expressing human PD-1) (Homo sapiens, UniProt Q15116)
T1 construct: expressed in transfected cells; host or cells: Jurkat
Experiment: Jurkat-PD-1 Cell Binding High-Content Screening Assay (CBA)
Summary of the method: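 Jurkat-hPD-1 cells (8×10^3/well) in DMEM with 10% fetal calf serum were preincubated with compound for 2 h at 37 °C. PE-labeled PD-L1-Ig was then added at 20 nM final for 1 h. Cells were fixed in paraformaldehyde with Hoechst 33342, washed and imaged by high-content imaging.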

[1] = Jurkat-hPD-1 cells, PE-labeled PD-L1-Ig 20 nM final; read-out: Jurkat HPD1 PDL1 IC50
[2] = PE-labeled PD-L1-Ig 20 nM final, Jurkat-hPD-1 cells; read-out: Jurkat HPD1 PDL1 IC50

T1 sequence (Q15116 25-288): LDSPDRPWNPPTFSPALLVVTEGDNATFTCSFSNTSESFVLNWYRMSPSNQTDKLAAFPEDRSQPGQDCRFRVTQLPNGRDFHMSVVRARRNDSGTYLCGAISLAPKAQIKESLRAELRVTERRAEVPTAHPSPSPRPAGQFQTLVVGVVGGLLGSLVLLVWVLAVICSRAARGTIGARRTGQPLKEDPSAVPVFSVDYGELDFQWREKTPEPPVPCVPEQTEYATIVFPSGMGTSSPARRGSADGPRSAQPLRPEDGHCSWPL

Row | IC50 [1] [nM] | IC50 [2] [nM] | SMILES
1 | 6.9 |  | CC(=O)NCCCC[C@@H]1NC(=O)[C@H](C(C)(C)O)NC(=O)[C@H](CC2CCCCC2)NC(=O)[C@H](CCN)NC(=O)[C@@H](CC(C)C)NC(=O)[C@H](C)N(C)C(=O)[C@H](CCCNC(N)=O)NC(=O)[C@H](Cc2ccc(-c3ccccc3)cc2)NC(=O)[C@H](Cc2ccc(C(=O)O)cc2)NC(=O)[C@H](Cc2cccc(C(F)(F)F)c2)NC(=O)[C@H](CC(=O)O)NC(=O)[C@H](Cc2ccc(OCC(=O)O)cc2)NC(=O)[C@H]([C@H](C)N)NC(=O)CSC[C@@H](C(=O)N[C@@H](CCN)C(=O)NCCOCCOCC(=O)N[C@@H](CCC(=O)NCCOCCOCC(=O)NCCCCCCCCCCCCC(=O)O)C(=O)O)NC1=O [Example 1206] ({CH2CO}-[Abu(3S-NH2)]Y(Carboxymethyl)D[Phe(3-CF3)][Phe(4-COOH)][Bip][Cit][NMeA][dL][Dab][Cha][Val(3-OH)]K(Ac)C[Dab][AEEA][γGlu][AEEA]-{NH(CH2)12COOH}; thioether N-14)
2 | 18.4 |  | Cc1cccc(C[C@@H]2NC(=O)[C@H](CC(=O)O)NC(=O)[C@H](Cc3ccc(OCC(=O)O)cc3)NC(=O)[C@H](CN)NC(=O)CSC[C@@H](C(=O)NCC(=O)N[C@@H](CN)C(=O)NCC(=O)NCCCCCCCCCCC(=O)O)NC(=O)[C@H](CO)NC(=O)[C@H](C(C)C)NC(=O)[C@H](CC(C)C)NC(=O)[C@H](CC(N)=O)NC(=O)[C@@H](CC(C)C)NC(=O)[C@H](C)N(C)C(=O)[C@H](C(C)C)NC(=O)[C@H](Cc3ccc(-c4ccccc4)cc3)NC(=O)[C@H](CC(C)C)NC2=O)c1 [Example 1052] ({CH2CO}-[Dap]Y(Carboxymethyl)D[Phe(3-Me)]L[Bip]V[NMeA][dL]NLVSCG[Dap]G[Aun]-OH; thioether N-14)

Continued, compound first:

Row | SMILES | IC50 [1] [nM] | IC50 [2] [nM]
3 | CC(C)C[C@@H]1NC(=O)[C@H](Cc2c[nH]c3ccccc23)NC(=O)[C@H](CC(=O)O)NC(=O)[C@H](Cc2ccc(C(=O)O)cc2)NC(=O)[C@H](Cc2ccc(OCC(=O)O)cc2)NC(=O)CSC[C@@H](C(=O)N[C@@H](CCN)C(=O)NCCOCCOCC(=O)NCCCCCCCCCCC(=O)O)NC(=O)[C@H](Cc2cnc[nH]2)NC(=O)[C@H](C(C)C)NC(=O)[C@H](CC2CCCCC2)NC(=O)[C@H](CCN)NC(=O)[C@@H](CC(C)C)NC(=O)[C@H](C)N(C)C(=O)[C@H](C(C)C)NC(=O)[C@H](Cc2ccc(-c3ccccc3)cc2)NC1=O [Example 1130] ({CH2CO}-Y(Carboxymethyl)[Phe(4-COOH)]DWL[Bip]V[NMeA][dL][Dab][Cha]VHC[Dab][AEEA][Aun]-OH; thioether N-14) | 12.3 | 
4 | Cc1cccc(C[C@@H]2NC(=O)[C@H](CC(=O)O)NC(=O)[C@H](Cc3ccc(OCC(=O)O)cc3)NC(=O)[C@H](Cc3ccsc3)NC(=O)CSC[C@@H](C(=O)N[C@@H](CCN)C(=O)NCCCCCCCCCCC(=O)O)NC(=O)[C@H](CO)NC(=O)[C@H](C(C)(C)O)NC(=O)[C@H](CC3CCCCC3)NC(=O)[C@H](Cc3cnc[nH]3)NC(=O)[C@@H](CC(C)C)NC(=O)[C@H](C)N(C)C(=O)[C@H](Cc3ccc(OCC(=O)O)cc3)NC(=O)[C@H](Cc3ccc(-c4ccccc4)cc3)NC(=O)[C@H](Cc3ccc(OCC(=O)O)cc3)NC2=O)c1 [Example 2457] ({CH2CO}-[3Thi]Y(Carboxymethyl)D[Phe(3-Me)]Y(Carboxymethyl)[Bip]Y(Carboxymethyl)[NMeA][dL]H[Cha][Val(3-OH)]SC[Dab][Aun]-OH; thioether N-14) |  | 41.2
5 | CC(=O)NCCCC[C@@H]1NC(=O)[C@H](C(C)(C)O)NC(=O)[C@H](CC2CCCCC2)NC(=O)[C@H](CCN)NC(=O)[C@@H](CC(C)C)NC(=O)[C@H](C)N(C)C(=O)[C@H](Cc2ccc(C(F)(F)F)cc2)NC(=O)[C@H](Cc2ccc(-c3ccccc3)cc2)NC(=O)[C@H](Cc2ccc(C(=O)O)cc2)NC(=O)[C@H](Cc2cccc(C)c2)NC(=O)[C@H](CC(=O)O)NC(=O)[C@H](Cc2ccc(OCC(=O)O)cc2)NC(=O)[C@H](Cc2ccc(OCC(=O)O)cc2)NC(=O)CSC[C@@H](C(=O)N[C@@H](CCN)C(=O)NCCOCCOCC(=O)NCCCCCCCCCCC(=O)O)NC1=O [Example 2594] ({CH2CO}-Y(Carboxymethyl)Y(Carboxymethyl)D[Phe(3-Me)][Phe(4-COOH)][Bip][Phe(4-CF3)][NMeA][dL][Dab][Cha][Val(3-OH)]K(Ac)C[Dab][AEEA][Aun]-OH; thioether N-14) |  | 5.7
